# Test results published in US20090011975A1, “TARGETED BONE MARROW PROTECTION AGENTS” (Semafore Pharmaceuticals Inc., priority 2003, published 2009).
# Where two headings read alike, the source gives them in different places.
# Columns and labels:
# [1] = Reversibility of acyl methylenes in phosphate buffer; type: physicochemical; settings: 50 mM phosphate buffer
# Experimental: A prodrug strategy was devised using cyclized PFT-β and a structure activity relationship to obtain a prodrug linkage that converts to the native drug with about a 3 day half-life. A key novel intermediate (BI) (the chemical structure of which is set forth in FIG. 22) was generated in greater than 90% yield and >95% purity. […] This allowed preparation of the acyl methylene compounds recited in Table 2. All of the compounds of Table 2 were diluted into 50 mM phosphate buffer at pH=7.4 and pH=4.8 at room temperature and analyzed over time for stability. The amount of PFT-β was quantitated, and the amount of acyl methylene disappearing over time was quantitated by LCMS. A half-life for the cleavage of the acyl methylenes to generate PFT-β under relevant physiological conditions was determined. These half lives are set forth in Table 2 associated with the structures.
# [2] = Affinity of bone targeting agents to hydroxyapatite (supernatant LCMS); type: binding; settings: 0.100 mM test solution in TBS pH 7.40, HA suspension 1.00 or 10.0 mg/ml, 1 hour (FIG. 25)
# Experimental: To determine the affinity of the bone targeting agents to hydroxyapatite, the method described in Willson et al., Biorganic & Medicinal Chemistry Letters, 6(9), 1043-1046 (1996) for determining bone affinity using HPLC retention on a hydroxyapatite column was modified. The affinity of several bone targeting agents was determined using the following method. […] The suspension was diluted to prepare a 1.00 mg/ml HA suspension by stirring on a magnetic stir plate at the slowest speed necessary to create a uniform suspension appropriate for sampling. Each tested compound was dissolved in TBS at a concentration of 0.100 mM. 200 μl of test solution was mixed with 200 μl of TBS, HA at 1.00 mg/ml, or HA at 10.0 mg/ml, and agitated on an orbital shaker at 200 rpm for 1 hour. Each experiment was performed in triplicate. The supernatant solution was analyzed using single ion monitoring (SIM) mass spectral mode on a Shimadzu LCMS-2010 liquid chromatograph-mass spectrometer. The SIM counts in the test compound/TBS solutions were set at 100%. The amount of test compound present in the HA supernatant test solutions was expressed as a percentage of the amount of test compound available with no hydroxyapatite present. Tetracycline was included as a positive control.
# [3] = Binding of (BH) to hydroxyapatite and resistance to washing
# Experimental: The final conjugate (BH) (see Table 2) was synthesized (assembled) as described and purified by HPLC. […] A 900 μL aliquot of 1.9 mM (BH) in 5 mM phosphate buffer at pH=7 was mixed with 100 μL of an hydroxyapatite suspension (25 weight percent hydroxyapatite; Sigma) containing approximately 25 mg of hydroxyapatite. The suspension was mixed gently for 15 minutes and then centrifuged at 10,000 rpm for one minute. A 100 μL aliquot was removed and analyzed by electrospray LCMS and compared to a standard solution that had not been exposed to hydroxyapatite. […] The supernatant was decanted from the hydroxyapatite solid, an additional 900 μL of de-ionized water was added, and the mix was shaken vigorously for 20 seconds. The suspension was then centrifuged at 10,000 rpm for one minute. A 100 μL aliquot of suspension was removed and analyzed by electrospray LCMS and compared to the standard solution that had not been exposed to hydroxyapatite. […] The supernatant was decanted from the hydroxyapatite solid, an additional 900 μL of de-ionized water was added, and the mix was shaken vigorously for 20 seconds. The suspension was then centrifuged at 10,000 rpm for one minute. A 100 μL aliquot was removed and analyzed by electrospray LCMS and compared to the standard solution. […] Thus, of the original 1.74 μMoles of (BH) present in the supernatant and exposed to the hydroxyapatite, a total of 0.48 μMoles was recovered in the original supernatant plus the two water washes.
# [4] = Liberation of PFT-β from hydroxyapatite-bound (BH) over time; type: physicochemical
# Experimental: The hydroxyapatite of the suspension was then resuspended in wash number 2 supernatant by pipetting up and down. A 20 μL aliquot of the resulting 900 μL suspension was removed and extracted with methanol. An analysis of the methanol extract by LCMS (versus a standard of (BH)) indicated no detectable (BH) was extractable from the hydroxyapatite sample known to contain the 1.26 μMoles of (BH) described above. […] The suspension was then gently rocked for 34 hours. A 20 μL aliquot was removed and analyzed after extraction with methanol. […] An addition aliquot of the gently mixed suspension was obtained after a total 153 hours contained no detectable, extractable (BH).
# [5] = Conversion of PFT-α to PFT-β in human serum; type: in vitro ADME; settings: for peak area (254 nm), Human Serum Stability: PFT-α initially 50 μMolar, 37° C.
# Experimental: (§1) A 10.0 mMolar solution of PFT-α in DMSO was prepared. A 5 μL aliquot of the solution was diluted with 495 μL of methanol, and further diluted with 500 μL of acetonitrile to produce a comparison standard 50 μMolar solution. Five 5 μL aliquots of 10.0 mMolar solution of PFT-α in DMSO was added to each of five plastic vials containing 495 μL of human serum (Sigma-Aldrich), and the vials were capped. The solution was mixed thoroughly and allowed to stand at 37° C. At different timepoints, each of the 5 vials were removed from heat, cooled to room temperature, and the solution was diluted with 500 μL of acetonitrile to precipitate proteins and nondesirable solutes. Each mixture was vortexed vigorously, passed through a 0.2 um Whatman Uniprep sample filter device, and analyzed by LC-MS (the methods of which are described in Example 12). The UV areas for the peak corresponding to PFT-α (retention time=1.8 minutes) and for the peak corresponding to PFT-β (retention time=3.9 minutes) were tabulated.
# [6] = Conversion of PFT-α to PFT-β in phosphate buffer pH 7.4; type: physicochemical; settings: for peak area (254 nm), Phosphate Buffer pH = 7.4 Stability: PFT-α initially 50 μMolar, 37° C.
# Experimental: as §1
# The method set forth above was repeated wherein 50 mMolar phosphate buffer (pH=7.4) was substituted for human serum.
# [7] = test system: C8 cells (mouse embryo fibroblasts transformed with E1a+ras); settings: cited from earlier work
# [8] = test system: C57BL strain and Balb/c strain mice; settings: cited from earlier work
# p53-null mice = settings: PFT-α injections; cited from earlier work
# [9] = test system: p53-mediated transcription; assay: p53-mediated transcription, MASPIN promoter-luciferase in HBECs; type: cell-based, human; settings: PFT-β liberated from (BH) on hydroxyapatite, HBECs transfected with wild type p53 plasmid (FIG. 27)
# Experimental: The binding to hydroxyapatite to the bone targeted prodrug (BH) and its conversion over time to liberate PFT-β was described in Example 10. The PFT-β liberated (5.11 millimolar solution from Example 10) was assayed for its biological activity by evaluating the degree of p53-mediated transcription in the presence and absence of the liberated PFT-β. The assay comprised transiently transfecting human brain endothelial cells (HBECs) with a plasmid comprising the MASPIN promoter, which contains two p53 binding sites, operably linked to the luciferase gene. A group of HBECs was transiently transfected with a plasmid encoding wild type p53. Thus, if p53 produced in the transfected HBECs is active, transcription of the luciferase gene will be activated and the produced luciferase detected. p53-mediated transcription is measured relative to the internal control plasmid pCMVβ-galactosidase to control for transfection efficiency.
# The results of the assay are set forth in the bar graph of FIG. 27, the data of which represents fold induction of p53-specific transcriptional activity in HBECs. Column 1 of FIG. 27 represents a negative control resulting from HBECs not transfected with the wild type p53 plasmid. Column 2 of FIG. 27 represents data obtained from HBECs transfected with the wild type p53 plasmid which were not exposed to PFT-β. […]
# Aqueous solubility = type: physicochemical
# [10] = pH 4.8, room temperature, read-out: Half Life pH = 4.8
# [11] = pH 7.4, room temperature, read-out: Half Life pH = 7.4 (converted)
Compound,"half-life at 100 µM [1, 10]","half-life at 100 µM [1, 11]",affinity to hydroxyapatite [2],"peak area (254 nm), Human Serum Stability ([5]; 0 hours)","peak area (254 nm), Human Serum Stability ([5]; 1.5 hours)","peak area (254 nm), Human Serum Stability ([5]; 3 hours)","peak area (254 nm), Human Serum Stability ([5]; 4.5 hours)","peak area (254 nm), Human Serum Stability ([5]; 17 hours)","peak area (254 nm), Phosphate Buffer pH = 7.4 Stability ([6]; 0 hours)","peak area (254 nm), Phosphate Buffer pH = 7.4 Stability ([6]; 1.5 hours)","peak area (254 nm), Phosphate Buffer pH = 7.4 Stability ([6]; 3 hours)","peak area (254 nm), Phosphate Buffer pH = 7.4 Stability ([6]; 4.5 hours)","peak area (254 nm), Phosphate Buffer pH = 7.4 Stability ([6]; 17 hours)",other results
CC(=O)OC[n+]1c(-c2ccc(C)cc2)cn2c3c(sc21)CCCC3 [BG],> 20.8 days,> 20.8 days,–,–,–,–,–,–,–,–,–,–,–,–
Cc1ccc(-c2cn3c4c(sc3[n+]2COC(=O)c2ccc(CN(CP(=O)(O)O)CP(=O)(O)O)cc2)CCCC4)cc1 [BH],> 20.8 days,3.23 days,almost identical to that of (BC),–,–,–,–,–,–,–,–,–,–,"originally present (BH) bound to the hydroxyapatite solid ([3]; 1.9 mM in 5 mM phosphate buffer pH 7, approx. 25 mg hydroxyapatite, 15 minutes): 77%; originally present (BH) in the supernatant, wash number 1 ([3]; 900 μL de-ionized water wash 1): 3.5%; originally present (BH) in the supernatant, wash number 2 ([3]; 900 μL de-ionized water wash 2): 0.6%; (BH) remained in the supernatant solution ([3]; after 15 minutes with hydroxyapatite): 23%; (BH) adsorbed to the hydroxyapatite so as to resist washing off ([3]; of original 1.74 μMoles): 1.26 µmol; total recovered in the original supernatant plus the two water washes ([3]; of original 1.74 μMoles): 0.48 µmol; (BH) extractable with methanol from hydroxyapatite ([4]; 34 hours): no detectable; prodrug cleavage product PFT-β, percent of the 1.26 μMoles sorbed ([4]; 34 hours): 19.6%; (BH) extractable with methanol from hydroxyapatite ([4]; 105 hours): no detectable; prodrug cleavage product PFT-β, percent of the 1.26 μMoles sorbed ([4]; 105 hours): 29.1%; (BH) extractable with methanol from hydroxyapatite ([4]; 153 hours): no detectable; prodrug cleavage product PFT-β, percent of the 1.26 μMoles sorbed ([4]; 153 hours): 37.5%; (BH) extractable with methanol from hydroxyapatite ([4]; start, after washes): no detectable; prodrug cleavage product PFT-β, percent of the 1.26 μMoles sorbed ([4]; start, after washes): < 7%"
"Cc1ccc(C(=O)Cn2c3c(sc2=N)CCCC3)cc1 [PFT-α, 2-[2-imino-4,5,6,7-tetrahydro-1,3-benzothiazol-3(2H)-yl]-1-(4-methylphenyl)-1-ethanone]",–,–,–,547169,312351,156823,118842,7927,584109,448284,303800,227004,18724,"time in which half of PFT-α is converted to PFT-β ([5]; human serum, initial 50 μMolar): about 3 hours; time in which half of PFT-α is converted to PFT-β ([6]; phosphate buffer, initial 50 μMolar): about 1.8 hours; inhibition of apoptosis induced by doxorubicin, etoposide, paclitaxel, cytosine arabinoside, UV light, and gamma radiation ([7]; 10 micromolar concentration): inhibited apoptosis; protection on pretreatment of cells and removal of the compound before the stress-inducing event ([7]; pretreatment, compound removed before stress): no significant protection; tumors or pathological lesions in gamma-irradiated survivors ([8]; 7 months post-irradiation): No tumors or pathological lesions; rescue from 60% killing doses of gamma radiation ([8]; single intraperitoneal injection 2.2 mg/kg, 8 Gy C57BL, 6 Gy Balb/c): completely rescued; weight-loss versus controls ([8]; treated irradiated animals): less weight-loss than controls; protective effect in p53-null mice treated with radiation (p53-null mice): no protective effect"
"Cc1ccc(-c2cn3c4c(sc3n2)CCCC4)cc1 [PFT-β, 2-p-Tolyl-5,6,7,8-tetrahydro-benzo[d]imidazo[2,1-b]thiazole]",–,–,–,13781,259004,448826,512198,696098,13032,176201,307793,427152,601840,biological activity (inhibition of p53-mediated transcription) [9]: biologically active; aqueous solubility (Aqueous solubility): about 3 μMolar
Phenyphosphonic acid [BK],–,–,no observable affinity,–,–,–,–,–,–,–,–,–,–,–
